Measured values: US7928189B2, “PCSK9 polypeptide fragment” (Ottawa Health Research Institute, priority 2008, dated 2011)
Where no end group is shown, it is not given here. [ ]: non-standard residue; d: D form. pS = N[C@@H](COP(=O)(O)O)C(=O)O

Assays:
Type in all cases: cell-based, human
[1] = test system: LDLR levels in Huh7 cells; test: Kinase inhibitor incubation, LDLR immunoblot of total cell lysates; details: 16 hrs, SSP at 200 nm, GK at 25 μg/ml, relative to untreated cells
Description: The level of LDLR was quantified in Huh7 cells by immunoblotting of total cell lysates (50 μg) in response to overnight incubation without (control) or with two different kinase inhibitors, staurosporine (SSP at 200 nm) or GK (genistein at 25 μg/ml) (FIG. 11A). Huh7 cells were seeded onto 6 well plates and grown to 80% confluency in DMEM (Dulbecco's Modified Eagle's Medium)+10% (v/v) FBS (fetal bovine serum)+280 μg/ml GTM (gentamycin). Cells were then incubated for 16 hrs in the same media in the presence or absence of kinase inhibitor; staurosporine (SSP at 200 nm) or GK (genistein at 25 μg/ml). Cells were lysed in 1XRIPA buffer [50 mM Tris (pH 7.6), 150 mM NaCl, 1% (v/v) NP-40, 0.5% (w/v) DOC, 0.1% (w/v) SDS] in the presence of inhibitors, as above. Lysates were rotated at 4° C. for 30 min, centrifuged at 13,000×g for 3 min and supernatants collected. Protein concentrations in total cell lysates were determined by the Bradford dye-binding method using Bio-Rad's Protein Assay Kit (Bio-Rad; Mississauga, ON, CAN). LDLR levels were analyzed by immunoblotting following a standard protocol. The protein signals were quantified by densitometry using Syngene Chemigenius 2XE imager and Gene Tools software. […]

[2] = test system: PCSK9 phosphorylation in Huh7 cells; test: Kinase inhibitor incubation, radiolabelling and immunoprecipitation of secreted PCSK9; details: 32P-orthophosphate, 16 hrs, SSP at 200 nm, GK at 25 μg/ml
Description: Untransfected and transfected HepG2 and Huh7 cells were grown to confluence as above. Prior to radiolabeling cells were incubated for 4 hours in serum-free DMEM without sodium phosphate (Invitrogen) or methionine/cysteine (Met/Cys) free DMEM (Invitrogen) and then incubated for 16 hrs in the same media in the presence of either 250 μCi 32P-orthophosphate or 250 μCi 35S-Met/Cys. Media and TCLs were harvested and immunoprecipitated as described above. Samples were fractionated through a 12% SDSPAGE. Following electrophoresis gels were dried and visualized by phosphoimaging using a Typhoon Imager. Signals were quantified using ImageQuant 5.2 software using the integer integration method when comparing samples within a lane and, for samples between lanes, by volume quantitation as recommended. The level of LDLR was quantified in Huh7 cells by immunoblotting of total cell lysates (50 μg) in response to overnight incubation without (control) or with two different kinase inhibitors, staurosporine (SSP at 200 nm) or GK (genistein at 25 μg/ml) (FIG. 11A). […] Protein concentrations in total cell lysates were determined by the Bradford dye-binding method using Bio-Rad's Protein Assay Kit (Bio-Rad; Mississauga, ON, CAN). LDLR levels were analyzed by immunoblotting following a standard protocol. […]

[3] = test system: LDLR levels in Huh7 cells; test: Peptides added to cultured cells, LDLR immunoblot of total cell lysates; details: 24 hours, media minus FBS
Description: Cells were seeded onto 6 well plates and grown to ˜80% confluency. All cell lines were grown in DMEM (Dulbecco's Modified Eagle's Medium)+10% (v/v) FBS (fetal bovine serum)+280 μg/ml GTM (gentamycin). In this case, cells were incubated overnight in the same media in the absence of FBS for 12 hours. Peptides are then added to media minus FBS, and at indicated concentrations and this media+peptide is added onto cells cultured for additional 24 hours. Following this incubation we collected the spent media and total cell lysates (TCL) in the presence of protease inhibitor cocktail. 50 μg of proteins from TCL were then fractionated by SDS-PAGE, transferred to nitrocellulose and immunoblotted following standard protocols with a commercial anti LDLR antibody. The protein signals for LDLR were quantified by densitometry using Syngene Chemigenius 2XE imager and Gene Tools software. All values are made relative to values from untreated control cells set as 1 and presented as mean±SEM ([…]).

[4] = test system: LDLR levels in Huh7 cells; test: Overexpression of PCSK9 phosphorylation mutants, LDLR immunoblot; details: 72 hours post-transfection, in comparison to wildtype PCSK9
Description: Huh7 cells were untransfected (C-control) or transiently transfected with cDNAs encoding either wild-type (WT) PCSK9, or the naturally-occurring propeptide mutants shown to decrease PCSK9 phosphorylation; A53V PCSK9 and R46L PCSK9 or the engineered propeptide mutants that prevent phosphorylation; S47A PCSK9, E49A PCAK9 and E49D PCSK9 or the engineered C-terminal mutants that prevent phosphorylation; S688A and E690A. 72 hours post-transfection spent media and total cell lysates were collected as described herein. 50 μg of total cell lysates were fractionated through a 7% NuPAGE Tris-Acetate Gel (Invitrogen) and immunoblotted for LDLR as described below. The protein signals were quantified by densitometry using Syngene Chemigenius 2XE imager and Gene Tools software. All values were made relative to values from control cells set as 1 and presented as mean±SEM (n=3). Data were analyzed using GraphPad Prism 5.0 statistical software with significance defined as p<0.05.

Compound | effect on LDLR degradation in comparison to control ([3]; peptide 10 μM) | effect on LDLR degradation in comparison to control ([3]; peptide 100 μM) | other results
O=c1c(-c2ccc(O)cc2)coc2cc(O)cc(O)c12 [GK, genistein] | – | – | level of LDLR [1]: not; phosphorylation of PCSK9 and its prodomain [2]: does not affect PCSK9 phosphorylation
CN[C@@H]1C[C@H]2O[C@@](C)([C@@H]1OC)n1c3ccccc3c3c4c(c5c6ccccc6n2c5c31)C(=O)NC4 [SSP, staurosporine] | – | – | level of LDLR [1]: increased levels of LDLR; phosphorylation of PCSK9 and its prodomain [2]: neither PCSK9 nor its prodomain are phosphorylated
RSRHLAQAS(phos)QELQ (RSRHLAQA[pS]QELQ) [SEQ ID NO:5, phosphorylated PCSK9 polypeptide fragment comprising phosphoSerine 688] | protect LDLR from degradation | protect LDLR from degradation | –
RSRHLAQASQELQ (homo sapiens) [SEQ ID NO:4, unphosphorylated PCSK9 polypeptide fragment comprising Serine 688] | protect LDLR from degradation | – | –
S47E: engineered propeptide mutant that mimics PCSK9 propeptide phosphorylation | – | – | level of LDLR / LDLR degradation [4]: increased LDLR degradation
VLALRS(phos)EEDGLAEAP (VLALR[pS]EEDGLAEAP) [SEQ ID NO:3, phosphorylated PCSK9 polypeptide fragment comprising phosphoSerine 47] | accentuate LDLR degradation | accentuate LDLR degradation | –
VLALRSEEDGLAEAP (homo sapiens) [SEQ ID NO:2, unphosphorylated PCSK9 polypeptide fragment comprising Serine 47] | protect LDLR from degradation | protect LDLR from degradation | –
